The subject of the assay is CEM cells HIV-1 protection, formazan growth assay. Kind of assay: NCI AIDS Antiviral Assay. The settings on record: for IC50: measured here: growth of uninfected CEM cells. In short, it runs like this: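 Five concentrations of each compound were applied to infected and uninfected human CEM cells. Protection from HIV-1 was judged from growth measured with a soluble formazan assay.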

SMILES strings stand for the structures. Calls of active or inactive are those of the source.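 The calls were made as follows: active = compounds giving half or more protection of infected cells from virus-caused growth loss, again on retest; inactive = the rest.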

One may read the EC50 as the midpoint of the concentration-response curve. As a reminder, the IC50 is the concentration that gives 50% inhibition. A low value points to higher potency. On to `C[C@@H]1C[C@@H](O)[C@@]2(O)C13CC(=O)OC(C3)[C@@H](C)[C@@]2(C)CO` (some centres not stated), for which the EC50 is over 200 µM and the IC50 was over 200 µM. For `O=c1[nH]nc(Cc2ccccc2)n1O`, the EC50 is over 200 µM and the IC50 was over 200 µM. Regarding `Cc1cc(O)c(/C=N/C(=S)NCc2ccccc2)c(=O)o1`, the EC50 is over 200 µM and the IC50 is over 200 µM.

As for `Cc1ccc(-c2nc(SCC(=O)O)n[nH]2)cc1`, the EC50 was over 1000 µM and the IC50 was determined as 708 µM. Regarding `Cc1ccc(C)c2c1n1c(=O)n(C)c(=O)n21`, the EC50 was over 200 µM and the IC50 was over 200 µM. For `CC(C)OC(=O)c1ccc(CCc2cc(O)c(Br)cc2O)cc1`, the EC50 is over 200 µM and the IC50 worked out at 8.32 µM. Take `Cc1cc(S(=O)(=O)Nc2nc(N)nc(N(C)C)n2)c(SCC(=O)O)cc1Cl`: the EC50 is over 200 µM and the IC50 was over 200 µM. For the molecule `CCCCOP(=S)(OCCCC)SC1(SC)SSC=C1CC(C)(C)C` (configuration not stated), the outcome was inactive. Same read-out and setting: for `C#CC1OC(C)(C)OC1C1OC(C)(C)OCC1O` (configuration not stated) the value was “inactive”.

For the molecule `CN1CCc2ccccc2C(C(=O)c2ccc3c(c2)OCO3)C1=O` (configuration not stated), the EC50 was over 155 µM and the IC50 came to 107 µM.

`N#Cc1cccc(N2C(=O)C3C4C=CC(C3C2=O)C2C(=O)N(c3cccc(C#N)c3)C(=O)C42)c1` (configuration not stated): the outcome was inactive. Take `CC1C(n2[nH]c(=O)n(C)c2=O)c2ccccc2-n2c(=O)n(C)c(=O)n21` (configuration not stated): the EC50 was over 64.6 µM and the IC50 was over 64.6 µM. Consider `NNC(=O)CCC(=O)Nc1cc(Cl)c(Cl)cc1Cl`, for which the EC50 was over 115 µM and the IC50 is over 115 µM. As to `CC(=O)NN(c1ccccc1)C1CCN(c2ccccc2)N1C(C)=O` (configuration not stated), the EC50 is over 200 µM and the IC50 amounted to 10.7 µM.

In the case of `Cc1ccc2[nH]c3c(ncc4[nH]c5ccccc5c43)c2c1`, the EC50 was over 19.1 µM and the IC50 was determined as 3.89 µM.

In the case of `O=C(O)CCSSCCC(=O)O`, the EC50 is over 200 µM and the IC50 was over 200 µM. As for `COc1ccc(-c2cc(-c3ccccc3)[nH]c(=O)c2N(C)C)cc1`, the EC50 was over 58.9 µM and the IC50 was over 58.9 µM. Turning to `CCOC(=O)C(CC(C(=O)OCC)C(=O)OCC)C(=O)OCC`, the outcome was inactive.

Consider `Cc1cc(O)c2c(c1)C(=O)C=CC2=O`, for which the result was inactive. For `COC(=O)CSC(=S)Nc1nnc(NC(=S)SCOC(C)=O)n1C(=S)SCC(=O)OC`, the EC50 was over 200 µM and the IC50 was over 200 µM.

Regarding `COC1=C(OC)C(=O)C2=C(OCCCO2)C1=O`, the EC50 was over 389 µM and the IC50 was found to be 2 µM. Consider `O=C(/C=C(\S/C=C(/c1ccccc1)N1CCn2c(C(=O)c3ccccc3)c(C(=O)c3ccccc3)c(C(=O)c3ccccc3)c21)C(=O)c1ccccc1)c1ccccc1`, for which the EC50 is over 200 µM and the IC50 stood at 37.2 µM. As to `NC(N)=N/N=C\CC(O)CO` (configuration not stated), the EC50 is over 200 µM and the IC50 is over 200 µM. In the case of `C=CC(O)C#Cc1cnc(OC)nc1OC` (configuration not stated), the outcome was inactive. `O=S(=O)(O)c1cc2onnc2c2ccccc12`: the EC50 was over 1000 µM and the IC50 worked out at 525 µM. For the molecule `ClCCCCOC1CCCCO1` (configuration not stated), the outcome was inactive.

As to `CCOC(=O)CC(C#N)(CC(=O)OCC)C(=O)OCC`, the result was inactive. Regarding `O=C(Nc1cc([N+](=O)[O-])cc([N+](=O)[O-])c1)OC1C2CCC1C1OC1C2` (configuration not stated), the EC50 was over 14.8 µM and the IC50 was over 14.8 µM.

In the case of `C=CCSCCOCn1cc(C)c(=O)[nH]c1=O`, the EC50 is over 200 µM and the IC50 was over 200 µM. For the molecule `COc1cccc(CCNc2c(C#N)c3n(c4ccccc4[n+]3C)c3ncccc23)c1`, the EC50 was over 200 µM and the IC50 amounted to 1 µM.

Consider `O=C1NCCCc2nonc21`, for which the EC50 was over 200 µM and the IC50 was over 200 µM. For the molecule `Cc1occc1C(=S)Nc1ccc(Cl)c(C(=O)OC(C)(C)C)c1`, the EC50 is 0.0339 µM and the IC50 amounted to 9.33 µM. Consider `NC(=O)NCCCC(NC(=O)OCCCCCn1ccc(=O)[nH]c1=O)C(=O)O` (configuration not stated), for which the EC50 was over 100 µM and the IC50 is over 100 µM. On to `C=CCOCn1ccc(=O)[nH]c1=O`, for which the EC50 was over 200 µM and the IC50 was over 200 µM. Take `O=P1(c2ccccc2)Nc2ccccc2N1c1ccccc1` (configuration not stated): the EC50 is over 200 µM and the IC50 turned out to be 38 µM. As for `CC1(CO)CCCC1NCCNC1CCCC1(C)CO` (configuration not stated), the EC50 was over 182 µM and the IC50 was 107 µM.

With `COCCOCCOC(=O)C(CO)(CC(CO)(C(C)=O)C(=O)OCCOCCOC)C(C)=O` (configuration not stated), the EC50 is over 200 µM and the IC50 is over 200 µM. Turning to `CCCCC(C)CCCC1=C(O)/C(=C/C(=O)O)OC1=O` (configuration not stated), the EC50 is 174 µM and the IC50 worked out at 447 µM. Turning to `CCOC(=O)C1/C(=N/N)CN2CCc3c([nH]c4ccccc34)C12C(=O)OCC` (configuration not stated), the EC50 was over 158 µM and the IC50 was determined as 145 µM. Regarding `CC(=O)OC1CC2C(C)(C)C(=O)C=C[C@]2(C)C2CCC3(C)C(c4ccoc4)C(=O)[C@H]4O[C@]43[C@]12C` (some centres not stated), the EC50 is over 15.5 µM and the IC50 amounted to 12 µM. Regarding `O=[N+]([O-])c1ccc2cnn(CCO)c2c1`, the EC50 is over 200 µM and the IC50 is over 200 µM.

On to `C[n+]1c(-c2ccc(/C=N\NC(=O)c3cncc(C(=O)N/N=C/c4ccc(-c5cn6ccccc6[n+]5C)cc4)c3)cc2)cn2ccccc21`, for which the EC50 was over 7.41 µM and the half-inhibitory concentration (IC50) was over 7.41 µM. Turning to `Cc1nc(-n2[nH]c(C)c(CCO)c2=O)[nH]c(=O)c1CCO`, the outcome was inactive.

On to `CCCCCCCCCC1CC(=O)c2c(O)cccc2O1` (configuration not stated), for which the EC50 was over 18.2 µM and the IC50 is over 18.2 µM. For the molecule `Cc1cc2c(C(C)C)c(O)c(O)c(C=Nc3cccc(C(F)(F)F)c3)c2c(O)c1-c1c(C)cc2c(C(C)C)c(O)c(O)c(C=Nc3cccc(C(F)(F)F)c3)c2c1O`, the outcome was inactive. For the molecule `O=c1[nH]c2nc[nH]c2c(=O)n1C1CCCCC1`, the EC50 is over 200 µM and the IC50 is over 200 µM. On to `COc1ccc2nc(-c3cccs3)cc(C(O)CN3CCSCC3)c2c1` (configuration not stated), for which the outcome was inactive.

For `CC1=C(C(=O)Nc2ccc([N+](=O)[O-])cc2)C(c2ccc(N(C)C)cc2)C(C(=O)Nc2ccc([N+](=O)[O-])cc2)=C(C)N1`, the EC50 is over 17.8 µM and the IC50 is over 17.8 µM. For the molecule `O=C1/C(=C/c2ccc([N+](=O)[O-])cc2)C(=O)N(c2ccccc2)C1c1ccccc1` (configuration not stated), the EC50 was over 74.1 µM and the half-inhibitory concentration (IC50) was 41.7 µM. The like results for `O=C(O)c1ccc(S(=O)(=O)O)o1` were, in that order, over 200 µM and over 200 µM. With `Clc1ccc2c(c1)-c1c3c(nn1-c1ccccc1)-c1ccccc1SC3O2` (configuration not stated), the EC50 was over 13.5 µM and the IC50 is over 13.5 µM. With `C1CC[N-]CC1.Oc1ccccc1C=NCCN=Cc1ccccc1O.[Co]`, the EC50 is over 200 µM and the IC50 amounted to 15.5 µM. In the same order, the values of `COC(=O)CCC(NC(=O)OC(C)(C)C)C(=O)NC(Cc1ccc(NC(=O)CCCC(C)=O)cc1)C(=O)NC(CCC(=O)OC)C(=O)OC` (configuration not stated) are over 100 µM and over 100 µM. In the case of `N#CC(C#N)=Cn1c(=S)[nH]c2ccccc21`, the EC50 was over 200 µM and the IC50 was over 200 µM.

(Values after PubChem BioAssay AID179 (DTP/NCI, 2004).)
